Assay [1] concerns the target T1, Muscarinic acetylcholine receptor M1 (Homo sapiens, UniProt P11229).
T1 sequence (P11229 whole entry): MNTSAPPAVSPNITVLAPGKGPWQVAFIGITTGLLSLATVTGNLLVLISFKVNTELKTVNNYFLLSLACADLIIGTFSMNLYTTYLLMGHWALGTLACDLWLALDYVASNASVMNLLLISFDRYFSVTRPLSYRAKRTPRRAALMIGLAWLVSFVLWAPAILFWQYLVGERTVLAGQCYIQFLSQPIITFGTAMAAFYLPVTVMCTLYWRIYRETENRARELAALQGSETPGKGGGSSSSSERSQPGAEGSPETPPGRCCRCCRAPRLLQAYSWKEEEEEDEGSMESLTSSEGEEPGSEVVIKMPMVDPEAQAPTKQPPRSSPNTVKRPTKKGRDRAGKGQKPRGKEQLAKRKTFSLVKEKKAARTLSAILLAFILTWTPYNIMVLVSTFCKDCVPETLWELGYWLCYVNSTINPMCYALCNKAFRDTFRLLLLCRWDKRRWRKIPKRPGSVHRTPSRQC
Kind of assay: Binding affinity to muscarinic M1 receptor.

For assay [2], the target named is Muscarinic acetylcholine receptors; M1 & M2 (Homo sapiens) (UniProt P11229+P08172). Kind of assay: Selectivity for muscarinic M1 receptor over muscarinic M2 receptor. In kind it is protein assay.

Here are results for 19 compounds from ChEMBL document CHEMBL1147180, “Quantitative structure-selectivity relationship for M2 selectivity between M1 and M2 of piperidinyl piperidine derivatives as muscarinic antagonists” (Bioorg Med Chem Lett, 2007).

As for `C=C(c1ccc(S(=O)(=O)c2ccc(OC)cc2)cc1)C1CCN(C2CCN(C(=O)OCC(C)C)CC2)CC1`, the Ki in assay [1] was 10.5 nM. Besides, in assay [2], the Ratio pKi came out at 1.54.
For the compound `C=C(c1ccc(S(=O)(=O)c2ccc(OC)cc2)cc1)C1CCN(C2CCN(C(=O)OCCC)CC2)CC1`, the Ki in assay [1] was 40.7 nM. The Ratio pKi in assay [2] came to 1.84.
`C=C(c1ccc(S(=O)(=O)c2ccc(OC)cc2)cc1)C1CCN(C2CCN(C(=O)OC(C)C)CC2)CC1` had a Ki in assay [1] of 14.8 nM. Also, in assay [2], the Ratio pKi came to 1.56.
In assay [1], `C=C(c1ccc(S(=O)(=O)c2ccc(OC)cc2)cc1)C1CCN(C2CCN(C(=O)Cc3ccccc3)CC2)CC1` had an inhibitory constant (Ki) of 95.7 nM. Further, the Ratio pKi in assay [2] turned out to be 1.5.
For `C=C(c1ccc(S(=O)(=O)c2ccc(OC)cc2)cc1)C1CCN(C2CCN(S(=O)(=O)C(C)C)CC2)CC1`, the Ki in assay [1] was 31.7 nM. Also, the Ratio pKi in assay [2] was determined as 2.3.
`C=C(c1ccc(S(=O)(=O)c2ccc(OC)cc2)cc1)C1CCN(C2CCNCC2)CC1`: the Ratio pKi in assay [2] is 0.903.
In turn, `C=C(c1ccc(S(=O)(=O)c2ccc(OC)cc2)cc1)C1CCN(C2CCN(C(=O)C3CC3)CC2)CC1` showed a Ki in assay [1] of 68.1 nM. Further, the Ratio pKi in assay [2] was determined as 2.42.
For `C=C(c1ccc(S(=O)(=O)c2ccc(OC)cc2)cc1)C1CCN(C2CCN(C(=O)CCC)CC2)CC1`, in assay [2], the Ratio pKi is 2.04.
In the case of `C=C(c1ccc(S(=O)(=O)c2ccc(OC)cc2)cc1)C1CCN(C2CCN(S(=O)(=O)Cc3ccccc3)CC2)CC1`, in assay [1], the affinity corresponds to a Ki of 33.3 nM. The Ratio pKi in assay [2] stood at 1.36.
For the compound `C=C(c1ccc(S(=O)(=O)c2ccc(OC)cc2)cc1)C1CCN(C2CCN(C(=O)C(C)C)CC2)CC1`, the Ki in assay [1] is 117 nM. The Ratio pKi in assay [2] stood at 1.72.
The like results for `C=C(c1ccc(S(=O)(=O)c2ccc(OC)cc2)cc1)C1CCN(C2CCN(C(=O)OC)CC2)CC1` were, in that order, 60.4 nM and 1.78.
In turn, `C=C(c1ccc(S(=O)(=O)c2ccc(OC)cc2)cc1)C1CCN(C2CCN(S(=O)(=O)CC)CC2)CC1` showed an inhibition constant Ki in assay [1] of 74.5 nM. Besides, in assay [2], the Ratio pKi was 2.21.
In assay [1], `C=C(c1ccc(S(=O)(=O)c2ccc(OC)cc2)cc1)C1CCN(C2CCN(C(=O)OCc3ccccc3)CC2)CC1` gave an inhibition constant Ki of 10.8 nM. Also, the Ratio pKi in assay [2] was determined as 1.38.
`C=C(c1ccc(S(=O)(=O)c2ccc(OC)cc2)cc1)C1CCN(C2CCN(C(=O)OCCCC)CC2)CC1` gave a Ki in assay [1] of 9.79 nM. In addition, the Ratio pKi in assay [2] was found to be 1.45.
For `C=C(c1ccc(S(=O)(=O)c2ccc(OC)cc2)cc1)C1CCN(C2CCN(S(=O)(=O)c3ccccc3)CC2)CC1`, in that order: 37.4 nM and 2.02.
For the compound `C=C(c1ccc(S(=O)(=O)c2ccc(OC)cc2)cc1)C1CCN(C2CCN(C(=O)OCC)CC2)CC1`, the Ratio pKi in assay [2] turned out to be 1.77.
On to `C=C(c1ccc(S(=O)(=O)c2ccc(OC)cc2)cc1)C1CCN(C2CCN(C(=O)CC)CC2)CC1`, for which the Ki in assay [1] is 60.8 nM. Moreover, the Ratio pKi in assay [2] turned out to be 1.2.
As to `C=C(c1ccc(S(=O)(=O)c2ccc(OC)cc2)cc1)C1CCN(C2CCN(S(=O)(=O)CCC)CC2)CC1`, the Ratio pKi in assay [2] came to 1.95.
The compound `C=C(c1ccc(S(=O)(=O)c2ccc(OC)cc2)cc1)C1CCN(C2CCN(S(=O)(=O)CCCC)CC2)CC1` showed a Ki in assay [1] of 57 nM. For the same compound, the Ratio pKi in assay [2] was 2.18.

A word on the Ki: it is a dissociation constant, usually derived from enzyme kinetics or from competition with a known ligand.
